In patent US20110064773A1, “PHARMACEUTICAL COMPOSITIONS COMPRISING A THYROID HORMON AND THEIR THERAPEUTIC USE” (UNIVERSITE JOSEPH FOURIER, priority 2007, published 2011):
Entries after “also recorded” stand apart in the source; their conditions may differ.

Tests used:
Assay type in all cases: in vivo, rat
ZDF rats [1] = assay: Indirect calorimetry (EE, RQ) of ZDF rats
Description: Energy expenditure as well as the nature of substrate oxidized (carbohydrates or lipids) were investigated by indirect calorimetry. This principle is based on the determinations of CO2 release (VCO2) and O2 consumption (VO2) by each animal. It assumes that O2 is entirely involved in substrate oxidation in the respiratory chain (leading to water production) while CO2 release is related to substrate decarboxylation (in the Krebs' cycle). These measurements allow assessing energy expenditure (EE) and respiratory quotient ([…], RQ). EE represent the absolute energy dissipation during rest and activity. RQ is a relative measurement indicating the ratio of carbohydrate versus lipid involved in oxidative pathway. A ratio of 1.0 indicates exclusive carbohydrate oxidation while a ratio of 0.7 indicates exclusive lipid oxidation. Each value between these two extreme values indicates the relative proportion of each substrate (of note protein oxidation was not evaluated). As an example, RQ approaches 0.7 during fasting, indicating lipid oxidation, conversely after feeding RQ increases close to 1 indicating carbohydrate oxidation resulting from food intake and blood insulin rise. Likewise, animals fed high-carbohydrate diets have higher RQs than those fed high-fat diets.
The indirect calorimetry system (Panlab, Barcelona, Spain) consists of cages, pumps, flow controllers, valves, and analyzers. It is computer-controlled in order to sequentially measure O2 and CO2 concentrations as well as air flow in four separate cages allowing four simultaneous determinations. Rats are isolated in one of the four metabolic chambers, and room air is used as a reference to monitor ambient O2 and CO2 concentrations periodically.
At predefined intervals, the computer sends a signal to store differential CO2 and O2 concentrations, flow rate, allowing computing VCO2, VO2, RQ, and EE (Weir equation) with data acquisition hardware (Metabolism, Panlab, Barcelona, Spain).

Wistar rats [2] = assay: Body composition (adipose tissues, skeletal muscles, brown adipose tissue) of Wistar rats; conditions: for White adipose tissue mass / Brown adipose tissue: 2.5 μg/100 g continuous
Description: (§1) At the end of the experimental period, animals were sacrificed by decapitation, in order to avoid the well-known effects of general anesthetics on mitochondrial metabolism. Blood samples were immediately collected and plasma was frozen for subsequent determination of serum metabolites and hormones. Liver, muscles and fat depots were quickly excised and weighed. Liver median lobe was rapidly freeze-clamped. Muscles (plantaris, soleus and gastrocnemius) were frozen in isopentane precooled in liquid nitrogen. Mesenteric fat consisted of adipose tissue surrounding the gastro-intestinal tract from the gastro-oesophageal sphincter to the end of the rectum with special care taken in distinguishing and removing the pancreas. Retroperitoneal fat pad was taken as the distinct depot behind each kidney along the lumbar muscles. Epididymal fat consisted of adipose tissue on top of the epididymis. For subcutaneous depot measurement, a rectangular piece of skin was taken on the right side of each animal from the median line of the abdomen between the spine and the right hip to the first rib. Interscapular brown adipose tissue was removed and dissected free from adjacent muscles and white adipose tissue. The heart ventricles, the right kidney and the spleen were also excised, weighed and frozen.

ZDF rats [3] = assay: Body composition of ZDF rats
Description: as §1

[4] = system: mitochondrial glycerol 3-phosphate dehydrogenase (mGPdH); assay: Mitochondrial glycerol 3-phosphate dehydrogenase (mGPdH) activity in liver mitochondria of treated rats; conditions: Wistar rats; for Mitochondrial GPdH activity: 2.5 μg/100 g continuous, 21 days
Description: Mitochondrial glycerol 3-phosphate dehydrogenase (mGPdH) activity was measured on the supernatant of isolated mitochondria after three cycles of freezing-thawing. Forty μg of mitochondria were incubated in a KH2PO4/K2HPO4 buffer (50 mM, pH 7.5) containing 9.3 μM of antimycin A, 5 μM of rotenone and decylubiquinone (50 μM). The reduction of 50 μM dichloro-indophenol (DCIP) by mGPDH was measured spectrophotometrically at 600 nm at 37° C. and enzymatic activity was expressed as μmol·min^−1·mg prot^−1.

n0STZ rats = assay: Oral glucose tolerance test (OGTT) and pancreas mass in n0STZ rats; conditions: 2.5 μg/100 g BW
Description: N0STZ rats are diabetic non obese with moderate insulin-resistance, and have received an injection of streptozotocine just after the birth, said product killing pancreatic cells.
The glucose resistance of these animals was tested by an oral glucose tolerance test (OGTT) Animals were fed with 2 g/kg BW of glucose and the Glucose concentration and Insulin concentration in blood were measured.
The glucose concentration (FIG. 35) and insulin concentration (FIG. 36) were then measured for this time.

Wistar rats [5] = assay: Oral glucose tolerance test (OGTT) and pancreas mass in non-diabetic Wistar rats; conditions: 2.5 μg/100 g BW, vs placebo
Description: Wistar rats are non-diabetic, non-obese without insulin-resistance, however like in humans, they tend to get slightly obese and insulin resistant with age. However this is supposed to be “physiological”.
The glucose resistance of these animals was tested by an oral glucose tolerance test (OGTT). Animals were fed with 2 g/kg BW of glucose and the Glucose concentration and Insulin concentration in blood were measured.

[6] = Blood rT3 dosage over 24 hours after administration; conditions: Wistar rats
Description: Blood rT3 dosage. The rT3 concentration is measured for 24 hours in Wistar rats treated with a high dosage of rT3 by intra-peritoneal injection (IP, square), oral ingestion (per os, triangle) or subcutaneous injection (sc, star). Basal rT3 level is measured in animal treated with placebo (lozenge).
Wistar rats were treated with rT3 hormone by a daily intraperitoneal injection (IP) (25 μg/100 g BW), a daily sub-cutaneous injection (SC) (25 μg/100 g BW), or a per os administration included in the rat food (25 μg/100 g BW). The continuous and constant administration was performed by using a pellet (25 μg/100 g BW).

[7] = 25 μg/100 g BW/day, continuous subcutaneous pellet, 8 days
[8] = 250 μg/kg BW pellet, three weeks, vs placebo, p<0.01
[9] = high dose 25 μg/100 g BW pellet, three weeks, vs placebo
[10] = low dose 2.5 μg/100 g BW, sub-cutaneous pellet, 21 days
[11] = 2 g/kg glucose, 3 hours, vs placebo

Q: What does the source list for `N[C@@H](Cc1ccc(Oc2cc(I)c(O)c(I)c2)c(I)c1)C(=O)O` [rT3, 3′,5′,3-triiodothyronine]?
A: Energy expenditure (ZDF rats [1]; 2.5 μg/100 g BW, vs placebo): enhanced; Respiratory quotient (RQ) (ZDF rats [1]; 2.5 μg/100 g BW, vs placebo): enhanced; Energy expenditure, enhancement (ZDF rats [1]; low dose of rT3): +50%; White adipose tissue mass (Wistar rats [2]; intra-peritoneal osmotic pump, 21 days): significant reduction; Brown adipose tissue (Wistar rats [2]; intra-peritoneal pump, 21 days): all treatments were effective; White adipose tissue mass (Wistar rats [2]; sub-cutaneous osmotic pump, 21 days): significant reduction; Brown adipose tissue (Wistar rats [2]; sub-cutaneous pump, 21 days): more significantly enhanced; Muscular mass (Wistar rats [2]; 25 μg/100 g BW, 8 days, whatever the administration (pellet, IP, per os, sc)): unchanged; White fatty (adipose) tissue mass (Wistar rats [2]; 25 μg/100 g BW, daily intra-peritoneal injection, 8 days): have not effects; White fatty (adipose) tissue mass (Wistar rats [2]; 25 μg/100 g BW, daily oral administration, 8 days): have not effects; White fatty (adipose) tissue mass (Wistar rats [2]; 25 μg/100 g BW, daily sub-cutaneous injection, 8 days): have not effects; Brown adipose tissue mass (Wistar rats [2]; [7]): significantly enhanced; White fatty (adipose) tissue mass (Wistar rats [2]; [7]): significant white fatty tissue mass reduction; Epididymal fat mass (Wistar rats [2]; 250 μg/kg BW pellet, three weeks, vs placebo): not different; Mesenteric fat mass (Wistar rats [2]; [8]): significantly lower; Retroperitoneal fat mass (Wistar rats [2]; [8]): significantly lower; Subcutaneous fat mass (Wistar rats [2]; [8]): significantly lower; Brown adipose tissue mass (Wistar rats [2]; [9]): significantly increased; also recorded: high increase; Muscle mass (lean body mass) (Wistar rats [2]; [9]): not affected at all; also recorded: do not affect; Muscle tissues mass (Wistar rats [2]; low dose 2.5 μg/100 g BW): do not affect; Brown adipose tissue mass (Wistar rats [2]; [10]): intermediate increase; also recorded: more significantly enhanced; White adipose tissue mass (fat mass) (Wistar rats [2]; [10]): reduces the fat mass with a lower efficiency; also recorded: significant reduction; Brown adipose tissue mass (ZDF rats [3]; 2.5 μg/100 g BW): increase; Muscular mass (ZDF rats [3]; 2.5 μg/100 g BW): not affected; White adipose tissue (ZDF rats [3]; 2.5 μg/100 g BW): seems not to be affected; Fat mass (photography, FIG. 21) (ZDF rats [3]; low dose of rT3, 21 days, vs placebo): reduced; Enzymatic activity of mitochondrial glycerol-3-phosphate dehydrogenase ([4]; liver mitochondria, high dose 25 μg/100 g): significantly increased; Enzymatic activity of mitochondrial glycerol-3-phosphate dehydrogenase (mGPdH) ([4]; liver mitochondria, low dose 2.5 μg/100 g, sub-cutaneous pellet): significantly increased; also recorded: more enhanced; Mitochondrial GPdH activity ([4]; intra-peritoneal pump): enhanced; Mitochondrial GPdH activity ([4]; sub-cutaneous pump): enhanced; AUC of the glucose concentration after OGTT (n0STZ rats; [11]): significantly reduced; AUC of the insulin concentration after OGTT (n0STZ rats; [11]): largely enhanced; Kinetic of blood glucose concentration after OGTT (n0STZ rats; 5 first minutes following the OGTT): regulate more rapidly; Kinetic of insulin concentration after OGTT (n0STZ rats; 20 min kinetic): high increase; Pancreas mass (n0STZ rats; vs placebo): increase; AUC of the glucose concentration after OGTT (Wistar rats [5]; 2 g/kg glucose, 3 hours): slightly reduced, however not significantly; AUC of the insulin concentration after OGTT (Wistar rats [5]; 2 g/kg glucose, 3 hours): significantly lower; Pancreas mass (Wistar rats [5]): moderate, albeit significant, increase; Circulating rT3 (degradation) ([6]; high dosage, intra-peritoneal injection): rapidly degraded; Circulating rT3 compared to the injected dose ([6]; intra-peritoneal injection, after 5 hours): five fold decreased; Circulating rT3 concentration in blood ([6]; per os administration): never allows to obtain in blood a concentration of rT3 similar with the concentration observed after intra-peritoneal injection; Circulating rT3 concentration in blood ([6]; sub-cutaneous injection): remains substantially the same as the injected concentration; Circulating rT3 (degradation) ([6]; sub-cutaneous injection, after 24 hours): quasi completely degraded
